In series [1] the test system is Rice (Nipponbare) calluses transformed with pCAMBIA1390-KasCYP72A31. Description: Redifferentiation and rooting test, rice callus transformed with pCAMBIA1390-KasCYP72A31. The format is cell-based, Oryza sativa. As to the method:
After selective culturing, the callus was transplanted onto a rice redifferentiation medium RE-III (containing 50 ppm hygromycin or 0.25 μM bispyribac sodium), cultured at 27 degree C. under 16L/8D conditions, and led to redifferentiate. The callus was plated after 2 weeks. At additional about 2 to 3 weeks, a redifferentiated, transformed rice (T0) was obtained. Once a differentiated shoot and/or root had appeared, the rice was transplanted onto a hormone-free (HF) medium (containing 50 ppm hygromycin or 0.25 μM bispyribac sodium).
According to Example 5, an HptII::35Spro::Kasalath CYP72A31::Tnos vector plasmid (pCAMBIA1390-KasCYP72A31, a kasCYP72A31 overexpression construct) or, as controls, an HptII::35Spro::sGFP::Tnos vector plasmid (pCAMBIA1302-sGFP, an sGFP overexpression construct) or an OsALS (W548L/S627I)::OsAct-1pro::sGFP::Tnos vector plasmid (pSTARA-sGFP, a BS-resistant construct) was introduced into a rice variety (a cultivar: Nipponbare) by using an Agrobacterium method. According to a schedule designated in FIG. 12A), transformed calluses were selected with 50 ppm hygromycin. […] Of all the calluses, 43 calluses were transplanted onto a redifferentiation medium containing 0.25 μM BS.
Rice (Nipponbare) calluses transformed with a pCAMBIA1390-KasCYP72A31 construct in Example 8 were obtained by 50 ppm hygromycin selection. When these calluses were transplanted onto a redifferentiation medium containing 50 ppm hygromycin, shoots and roots were differentiated from the callus at a redifferentiation efficiency of 95% (38/40 calluses). Subsequently, 25 redifferentiation calluses transformed with a pCAMBIA1390-KasCYP72A31 construct were transplanted onto a hormone-free medium containing 1 μM BS. As a result, 7 calluses had extending roots (a root extension rate of 28%. FIG. 15).

In series [2] the test system is non-transformed Arabidopsis thaliana (NT). Description: Drug sensitivity test on drug-containing MS medium, non-transformed Arabidopsis thaliana. The format is in vivo. As to the method: A bag of mixed salts for Murashige-Skoog (MS) medium (manufactured by Wako Pure Chemical Industries, Ltd.) 20 g of sucrose, 3 mg of thiamin hydrochloride, 5 mg of nicotinic acid, and 0.5 mg of pyridoxine hydrochloride were dissolved in distilled water, and filled up to 1 L with distilled water. After pH adjustment to 5.8 to 6.3 with 1 M KOH, 3 g of Gelrite was added to the solution, and dissolved using a microwave. After that, the mixture was autoclaved to prepare a sterile MS medium. A test drug was added to this sterile MS medium so as to make a final concentration of 1.3, 4.1, 12, 37, 110, or 330 nM. Arabidopsis thaliana from a sterilized seed was seeded in the drug-containing MS medium, and cultivated at 22° C. for 12 to 14 days in a continuous light period.
Note that the drugs used in this Example were bispyribac-sodium, pyrithiobac-sodium, pyriminobac, bensulfuron-methyl, penoxsulam, pyrazosulfuron-ethyl, amidosulfuron, imazosulfuron, nicosulfuron, and propyrisulfuron.

Series [3] relates to Nipponbare calluses overexpressing Kasalath-derived or Nipponbare-derived CYP72A32 or CYP72A33. Description: Callus growth test on BS-containing medium, CYP72A32 or CYP72A33 overexpression constructs. Format: cell-based, Oryza sativa. The text has this:
According to Example 5, an HptII::35Spro::Kasalath CYP72A32::Tnos vector plasmid (pCAMBIA1390-KasCYP72A32, a kasCYP72A32 overexpression construct), an HptII::35 Spro::Kasalath CYP72A33::Tnos vector plasmid (pCAMBIA1390-KasCYP72A33, a kasCYP72A33 overexpression construct), an HptII::35Spro::Nipponbare CYP72A32::Tnos vector plasmid (pCAMBIA1390-nbCYP72A32, an nbCYP72A32 overexpression construct), or an HptII::35Spro::Nipponbare CYP72A33::Tnos vector plasmid (pCAMBIA1390-nbCYP72A33, an nbCYP72A33 overexpression construct) was introduced into a rice variety (a cultivar: Nipponbare) by using an Agrobacterium method. Transformed calluses selected with 50 ppm hygromycin were isolated, and transplanted onto a bispyribac-sodium (BS)-containing medium to examine callus growth.

Series [4] has as its system rice calluses transformed with pSTARA-sGFP. Description: Selection of drug-resistant callus in N6D medium, pSTARA-sGFP. The format is cell-based, Oryza sativa. The settings on record: N6D medium containing 0.25 μM BS. On the procedure: Rice transformed with pCAMBIA1390-KasCYP72A31 was used to examine whether a Kasalath-derived CYP72A31 gene was able to be used as a selection marker for transformation with BS as a selection reagent. According to Example 5, rice (Nipponbare) was transformed with pCAMBIA1390-KasCYP72A31 or pSTARA-sGFP by using an Agrobacterium method.
Rice (Nipponbare) calluses transformed with pCAMBIA1390-KasCYP72A31 were cultured for 4 weeks in an N6D medium containing 0.1 or 0.25 μM BS or an N6D medium containing 50 ppm hygromycin to select drug-resistant calluses. Also, rice calluses transformed with pSTARA-sGFP were selected in a similar manner in an N6D medium containing 0.25 μM BS.

Series [5] relates to CYP72A31-overexpressing rice (K31-4-6-2). Description: Drug sensitivity test on gellan gum medium, CYP72A31-overexpressing rice. The format is in vivo, Oryza sativa. The settings on record: for CK ratio (%): plant height compared with drug-free medium. As to the method:
Next, 1.6 g of Hoagland's mix (Sigma-Aldrich Corporation) and 3 g of Gelrite (Wako Pure Chemical Industries, Ltd.) were suspended in 1 L of distilled water. Then, the mixture was dissolved and heated in a microwave. After that, the mixture was cooled to 50 to 60 degree C., and BS was added at a final concentration of 1 μM. This mixture was dispensed into 30-mL tubular bottles at 15 mL to prepare a gellan gum medium. Next, CSSL rice paddies were soaked in 0.5% sodium hypochlorite for about 20 minutes, and were then washed well with water. These paddies were soaked in distilled water, and kept at 27 degree C. for 3 to 5 days for germination. Germinating seeds were softly planted in sprout-side up on the gellan gum medium. These samples, together with a beaker filled with distilled water, were placed in a transparent case, which was then covered with a clear-plastic wrap. These samples were grown at 27 degree C. under fluorescent light illumination (14 hours of a light period and 10 hours of a dark period) for 7 to 9 days.
According to the method of Example 1, a gellan gum medium containing a test drug at a concentration of 0.01, 0.1, 1, or 10 μM was prepared. Rice seeds were sterilized, germinated, seeded in the medium, and cultivated.

As to `COc1cc(OC)nc(Oc2cccc(Oc3nc(OC)cc(OC)n3)c2C(=O)O)n1` [BS, bispyribac sodium], in series [1] (hormone-free medium containing 0.25 μM BS), the “Calluses with extending roots of all redifferentiation calluses” value came to 73%. For the same molecule, in series [1] (hormone-free medium containing 1 μM BS), the Root extension rate was 28%. This molecule also gave a Redifferentiation efficiency in series [1] (redifferentiation medium containing 0.25 μM BS) of 91%. Further, the “Rate of emerging of true leaf (%)” value in series [2] (drug 1.3 nM, day 12 after seeding) was found to be 44%; in series [2] (drug 1.3 nM, day 14 after seeding) it was 100%; in series [2] (drug 4.1 nM, day 12 after seeding), 67%; in series [2] (drug 4.1 nM, day 14 after seeding) it was 100%; in series [2] (drug 12 nM, day 12 after seeding), 56%; in series [2] (drug 12 nM, day 14 after seeding) it was 50%. Further, the “Rate of emerging of true leaf (%)” value in series [2] (drug 37 nM, day 12 after seeding) worked out at 0%; in series [2] (drug 37 nM, day 14 after seeding) it was 0%; in series [2] (drug 110 nM, day 12 after seeding) it was 0%; in series [2] (drug 110 nM, day 14 after seeding), 0%; in series [2] (drug 330 nM, day 12 after seeding), 0%; in series [2] (drug 330 nM, day 14 after seeding) it was 0%. Also, the Callus growth entry in series [3] is “not grown”. Further, the “Selection efficiency (ratio of the resulting transformed calluses/all calluses)” value in series [4] was determined as 82%. The “Resistance of transformed rice to the drug” value in series [5] (Table 4 and FIG. 25) is recorded as “exhibited resistance”. Also, the Ratio of sensitivity in series [5] (maximum drug concentration for CK ratio of 40% or more, K31-4-6-2 / wild-type rice) is over 100. For the same molecule, the “CK ratio (%)” value in series [5] (K31-4-6-2, drug 0.01 μM) came to 106%; in series [5] (K31-4-6-2, drug 0.1 μM) it was 97%; in series [5] (K31-4-6-2, drug 1 μM) it was 103%; in series [5] (K31-4-6-2, drug 10 μM), 74%.

Source of the values: patent publication US10000765B2, “Gene encoding cytochrome P450, and use thereof” (NATIONAL INSTITUTE OF AGROBIOLOGICAL SCIENCES, priority 2011, dated 2018).
